Source: patent US6352958B1, “Cycloimido-substituted benzofused heterocyclic herbicides” (FMC Corporation, priority 1997, dated 2002)

Experiments:
Type in all cases: in vivo
[1] = test system: green foxtail (Setaria viridis); assay: Preemergence herbicidal activity, green foxtail; conditions: Rate of Application 0.3 Kg/Ha, examined after 12-17 days
[2] = test system: soybean (Glycine max var. Winchester); assay: Postemergence herbicidal activity, soybean; conditions: rate of application 0.3 Kg/Ha, rated after 12-17 days
[3] = test system: morningglory (Ipomea lacunosa or Ipomea hederacea); assay: Postemergence herbicidal activity, morningglory; conditions: rate of application 0.3 Kg/Ha, rated after 12-17 days
[4] = test system: field corn (Zea mays var. Pioneer 3732); assay: Postemergence herbicidal activity, corn; conditions: rate of application 0.3 Kg/Ha, rated after 12-17 days
[5] = test system: field corn (Zea mays var. Pioneer 3732); assay: Preemergence herbicidal activity, corn; conditions: Rate of Application 0.3 Kg/Ha, examined after 12-17 days
[6] = test system: Johnsongrass (Sorghum halepense); assay: Preemergence herbicidal activity, johnsongrass; conditions: Rate of Application 0.3 Kg/Ha, examined after 12-17 days
[7] = test system: blackgrass (Aloepecurus myosuroides); assay: Postemergence herbicidal activity, blackgrass; conditions: rate of application 0.3 Kg/Ha, rated after 12-17 days
[8] = test system: common chickweed (Stellaria media); assay: Preemergence herbicidal activity, chickweed; conditions: Rate of Application 0.3 Kg/Ha, examined after 12-17 days
[9] = test system: wheat (Triticum aestivum var. Lew); assay: Postemergence herbicidal activity, wheat; conditions: rate of application 0.3 Kg/Ha, rated after 12-17 days
[10] = test system: velvetleaf (Abutilon theophrasti); assay: Postemergence herbicidal activity, velvetleaf; conditions: rate of application 0.3 Kg/Ha, rated after 12-17 days
[11] = test system: morningglory (Ipomea lacunosa or Ipomea hederacea); assay: Preemergence herbicidal activity, morningglory; conditions: Rate of Application 0.3 Kg/Ha, examined after 12-17 days
[12] = test system: Johnsongrass (Sorghum halepense); assay: Postemergence herbicidal activity, johnsongrass; conditions: rate of application 0.3 Kg/Ha, rated after 12-17 days
[13] = test system: common cocklebur (Xanthium strumarium L.); assay: Postemergence herbicidal activity, cocklebur; conditions: rate of application 0.3 Kg/Ha, rated after 12-17 days
[14] = test system: velvetleaf (Abutilon theophrasti); assay: Preemergence herbicidal activity, velvetleaf; conditions: Rate of Application 0.3 Kg/Ha, examined after 12-17 days
[15] = test system: common chickweed (Stellaria media); assay: Postemergence herbicidal activity, chickweed; conditions: rate of application 0.3 Kg/Ha, rated after 12-17 days
[16] = test system: green foxtail (Setaria viridis); assay: Postemergence herbicidal activity, green foxtail; conditions: rate of application 0.3 Kg/Ha, rated after 12-17 days
[17] = test system: soybean (Glycine max var. Winchester); assay: Preemergence herbicidal activity, soybean; conditions: Rate of Application 0.3 Kg/Ha, examined after 12-17 days
[18] = test system: common cocklebur (Xanthium strumarium L.); assay: Preemergence herbicidal activity, cocklebur; conditions: Rate of Application 0.3 Kg/Ha, examined after 12-17 days
[19] = test system: wheat (Triticum aestivum var. Lew); assay: Preemergence herbicidal activity, wheat; conditions: Rate of Application 0.3 Kg/Ha, examined after 12-17 days
[20] = test system: blackgrass (Aloepecurus myosuroides); assay: Preemergence herbicidal activity, blackgrass; conditions: Rate of Application 0.3 Kg/Ha, examined after 12-17 days

Row | Structure (SMILES) | PREEMERGENCE HERBICIDAL ACTIVITY (% CONTROL) SETVI [1] [%] | Postemergence herbicidal activity (% control) SOY [2] [%] | Postemergence herbicidal activity (% control) IPOSS [3] [%] | Postemergence herbicidal activity (% control) CRN [4] [%] | PREEMERGENCE HERBICIDAL ACTIVITY (% CONTROL) CRN [5] [%] | PREEMERGENCE HERBICIDAL ACTIVITY (% CONTROL) SORHA [6] [%] | Postemergence herbicidal activity (% control) ALOMY [7] [%] | PREEMERGENCE HERBICIDAL ACTIVITY (% CONTROL) STEME [8] [%] | Postemergence herbicidal activity (% control) WHT [9] [%] | Postemergence herbicidal activity (% control) ABUTH [10] [%] | PREEMERGENCE HERBICIDAL ACTIVITY (% CONTROL) IPOSS [11] [%] | Postemergence herbicidal activity (% control) SORHA [12] [%] | Postemergence herbicidal activity (% control) XANPE [13] [%] | PREEMERGENCE HERBICIDAL ACTIVITY (% CONTROL) ABUTH [14] [%] | Postemergence herbicidal activity (% control) STEME [15] [%] | Postemergence herbicidal activity (% control) SETVI [16] [%] | PREEMERGENCE HERBICIDAL ACTIVITY (% CONTROL) SOY [17] [%] | PREEMERGENCE HERBICIDAL ACTIVITY (% CONTROL) XANPE [18] [%] | PREEMERGENCE HERBICIDAL ACTIVITY (% CONTROL) WHT [19] [%] | PREEMERGENCE HERBICIDAL ACTIVITY (% CONTROL) ALOMY [20] [%]
1 | CNC(=O)OCCc1cc2c(Cl)cc(F)c(-n3c(=O)cc(C(F)(F)F)n(C)c3=O)c2o1 [Compound 261] | 100 | 95 | 100 | 100 | 95 | 100 | 100 | 100 | 80 | 100 | 100 | 100 | 100 | 100 | 100 | 100 | 100 | 90 | 80 | 80
2 | Cn1c(C(F)(F)F)cc(=O)n(-c2c(F)cc(Cl)c3cc(CCC(=O)O)oc23)c1=O [Compound 262] | 100 | 95 | 100 | 80 | 40 | 70 | 50 | 100 | 60 | 100 | 100 | 80 | 95 | 100 | 95 | 100 | 90 | 100 | 40 | 50
3 | COC(=O)CCc1cc2c(Cl)cc(F)c(-n3c(=O)cc(C(F)(F)F)n(C)c3=O)c2o1 [Compound 263] | 100 | 95 | 100 | 90 | 65 | 70 | 60 | 100 | 80 | 100 | 100 | 70 | 100 | 100 | 100 | 90 | 100 | 95 | 50 | 75
